Measurements reported in patent US20070191402A1, “Method of searching substrate having antidiabetic activity” (KYOWA HAKKO KOGYO CO., LTD., priority 2002, published 2007).

Experiments:
[1] = tested on: pancreatic β cell (MIN6 cell); experiment: Inhibition of binding of [3H]-labeled Compound 16 to pancreatic β cell; set-up: species or system murine; conditions: test compound 1 μmol/l; 10 nmol/l [3H]-labeled Compound 16; MIN6 cell, 4° C.
Protocol: MIN6 cell cultured to almost confluence in a 24-well plate for cell culture (manufactured by Corning) was washed twice with KRH buffer (119 mmol/l NaCl, 4.74 mmol/KCl, 2.54 mmol/l calcium chloride (CaCl2), 1.19 mmol/l magnesium sulfate (MgSO4), 1.19 mmol/l potassium dihydrogen phosphate (KH2PO4), 10 mmol/l HEPES, 2 mmol/l glucose, 0.1 w/v % bovine serum albumin (BSA), pH 7.3). Subsequently, the KRH buffer was added at 1 ml per well, for preincubation at 37° C. for 45 minutes. After preincubation, the supernatant was discarded, and 0.15 ml of the KRH buffer, […] at 4° C. for one hour or longer until the reaction reached equilibrium. Subsequently, the cell was washed twice using the KRH buffer. The KRH buffer was added at 2 ml per well, which was then left to stand at room temperature for 20 minutes. The cell was again washed twice by using the KRH buffer. The radioactivity remaining in each well was counted with a liquid scintillation counter to determine the binding amount.
The difference between the binding amount of the [^3H]-labeled Compound 16 (total binding amount) under conditions with no addition of any test compound and the binding amount of the [^3H]-labeled Compound 16 (non-specific binding amount) under conditions in the presence of the Compound 16 at 10 μmol/l was defined as specific binding amount.
According to the method described in Example 5, a substance having anti-diabetic activity was screened for, using the inhibitory activity of the binding between pancreatic β cells and [^3H]-labeled Compound 16. A tested substance was dissolved in dimethylsulfoxide and then added to give a final concentration of 1 μmol/l. The radioactivity with addition of the unlabeled Compound 16 was defined as the non-specific binding amount and the radioactivity without addition of the unlabeled Compound 16 was defined as the total binding amount, and then the individual specific binding amounts were calculated by the method described in Example 6. Using the following formula, the binding inhibition ratio was determined. [formula]

MIN6 cell = experiment: Insulin secretion test using MIN6 cell; type: cell-based, murine; conditions: MIN6 cell; glucose 14.5 mmol/l or 8.4 mmol/l
Protocol: Culturing MIN6 cell and testing insulin secretion using MIN6 cell were carried out according to the method described in Diabetorogia, 36, 1139-1145 (1993).
In other words, the influence of a compound on the insulin secretion activity in the presence of 14.5 mmol/l glucose was assessed by assaying the amount of insulin in the cell culture supernatant collected as follows.
The MIN6 cell cultured in a 24-well plate was washed twice with 1 ml of buffer A [119 mmol/l NaCl, 4.74 mmol/l KCl, 2.54 mmol/l CaCl2, 1.19 mmol/l MgSO4, 1.19 mmol/l KH2PO4, 10 mmol/l 2-[4-(2-hydroxylethyl)-1-piperadinyl]ethanesulfonic acid, 0.1% BSA, pH 7.3] containing 2 mmol/l glucose. Subsequently, the resulting cell was incubated in 1 ml of the buffer A containing 2 mmol/l glucose at 37° C. for 45 minutes. The culture supernatant was exchanged with the buffer A (1 ml) containing test compounds of various concentrations and 8.4 mmol/l glucose and incubated at 37° C. for 45 minutes to collect the culture supernatant.
Antibody-reactive insulin secreted in the culture supernatant was assayed by radioimmunoassay [Methods in Investigative and Diagnostic Endocrinology, Vol. 2A, 2B, North-Holland Publishing Co., Amsterdam (1973)] after the culture supernatant was diluted with phosphate buffer containing 1% BSA, 0.1% Tween 20, 0.12% EDTA 2Na, and 0.1% sodium azide. A standard curve was prepared by using human insulin as the standard substance, and individual insulin values were calculated on the basis of the curve.

His-p31 protein = biological target: T1, His-p31 protein (Mus musculus, UniProt Q99LB2); experiment: Enzyme activity inhibition of His-p31 protein (NADPH decrease, p-chlorobenzaldehyde); type: biochemical; conditions: p-chlorobenzaldehyde 250 μmol/l, NADPH 5 μmol/l, 37° C., absorbance at 340 nm
T1 construct: a gene part encoding the full-length p31 protein was prepared by polymerase chain reaction (PCR); made in house; host or cells: Escherichia coli BL21 / pET-14b-p31
T1 sequence (Q99LB2 20-279 limits assumed): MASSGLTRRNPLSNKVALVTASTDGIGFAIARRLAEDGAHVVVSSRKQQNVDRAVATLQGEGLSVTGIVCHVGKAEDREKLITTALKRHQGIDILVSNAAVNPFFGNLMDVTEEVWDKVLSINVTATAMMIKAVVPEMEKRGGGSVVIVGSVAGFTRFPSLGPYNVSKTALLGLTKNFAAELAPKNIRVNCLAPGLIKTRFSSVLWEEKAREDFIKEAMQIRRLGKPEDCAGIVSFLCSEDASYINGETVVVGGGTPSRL
Protocol: NADPH was added to 1 ml of a solution of 10 mmol/Tris-HCl, 100 mmol/l NaCl and 2 mmol/l EDTA, pH 7.4 containing the His-p31 protein prepared in Example 12 at 1 μg/ml and p-chlorobenzaldehyde at 250 μmol/l to give a final concentration of 5 μmol/l and incubated at 37° C. Then, the NADPH decrease following the decomposition of p-chlorobenzaldehyde in the presence or absence of a tested substance was detected at the absorbance at 340 nm.

For `CCCN1C(=O)N2C[C@@H](Cc3ccccc3)N=C2c2[nH]c(C3CCCC3)nc21` [compound 16], which “Binding inhibitory activity (%)” value [1] is on record?
The value was 100.0%.

What about the “Insulin secretory activity (%)” value (MIN6 cell) of the same compound?
Its value is 83.2%.

What about the “enzyme activity inhibition of the His-p31 protein” value (His-p31 protein) of the same compound?
The value was “strongly inhibited the activity of the protein”.
